In ChEMBL document CHEMBL1148684, “Benzimidazole-2-carboxamides as novel NR2B selective NMDA receptor antagonists” (Bioorg Med Chem Lett, 2006):

How the values were obtained:
[1] = target: Glutamate receptor ionotropic, NMDA 2B (Rattus norvegicus, UniProt Q00960); assay: Displacement of [3H]Ro25-6981 from NR2B NMDA receptor in rat forebrain membrane; assay type: cell membranes
Glutamate NMDA receptor = assay: Inhibition of NMDA-evoked increase in intracellular calcium ion in rat cortical cells; assay type: functional, cell-based
[2] = target: Glutamate NMDA receptor; GRIN1/GRIN2A (Homo sapiens) (UniProt Q05586+Q12879); assay: Inhibition of NMDA-evoked current in EcR293 cells transfected with NR1/NR2A upto 10 uM by patch clamp method; assay type: functional, cell-based; details: HEK293
[3] = Inhibition of NMDA-evoked current in EcR293 cells transfected with NR1/NR2D upto 10 uM by patch clamp method; assay type: functional, HEK293
Mus musculus = assay: Analgesic activity against formalin-induced persistent pain in orally dosed NMRI mouse assessed as decrease in licking time relative to control; assay type: functional; details: po

Sequence of Glutamate receptor ionotropic, NMDA 2B (Q00960 whole entry): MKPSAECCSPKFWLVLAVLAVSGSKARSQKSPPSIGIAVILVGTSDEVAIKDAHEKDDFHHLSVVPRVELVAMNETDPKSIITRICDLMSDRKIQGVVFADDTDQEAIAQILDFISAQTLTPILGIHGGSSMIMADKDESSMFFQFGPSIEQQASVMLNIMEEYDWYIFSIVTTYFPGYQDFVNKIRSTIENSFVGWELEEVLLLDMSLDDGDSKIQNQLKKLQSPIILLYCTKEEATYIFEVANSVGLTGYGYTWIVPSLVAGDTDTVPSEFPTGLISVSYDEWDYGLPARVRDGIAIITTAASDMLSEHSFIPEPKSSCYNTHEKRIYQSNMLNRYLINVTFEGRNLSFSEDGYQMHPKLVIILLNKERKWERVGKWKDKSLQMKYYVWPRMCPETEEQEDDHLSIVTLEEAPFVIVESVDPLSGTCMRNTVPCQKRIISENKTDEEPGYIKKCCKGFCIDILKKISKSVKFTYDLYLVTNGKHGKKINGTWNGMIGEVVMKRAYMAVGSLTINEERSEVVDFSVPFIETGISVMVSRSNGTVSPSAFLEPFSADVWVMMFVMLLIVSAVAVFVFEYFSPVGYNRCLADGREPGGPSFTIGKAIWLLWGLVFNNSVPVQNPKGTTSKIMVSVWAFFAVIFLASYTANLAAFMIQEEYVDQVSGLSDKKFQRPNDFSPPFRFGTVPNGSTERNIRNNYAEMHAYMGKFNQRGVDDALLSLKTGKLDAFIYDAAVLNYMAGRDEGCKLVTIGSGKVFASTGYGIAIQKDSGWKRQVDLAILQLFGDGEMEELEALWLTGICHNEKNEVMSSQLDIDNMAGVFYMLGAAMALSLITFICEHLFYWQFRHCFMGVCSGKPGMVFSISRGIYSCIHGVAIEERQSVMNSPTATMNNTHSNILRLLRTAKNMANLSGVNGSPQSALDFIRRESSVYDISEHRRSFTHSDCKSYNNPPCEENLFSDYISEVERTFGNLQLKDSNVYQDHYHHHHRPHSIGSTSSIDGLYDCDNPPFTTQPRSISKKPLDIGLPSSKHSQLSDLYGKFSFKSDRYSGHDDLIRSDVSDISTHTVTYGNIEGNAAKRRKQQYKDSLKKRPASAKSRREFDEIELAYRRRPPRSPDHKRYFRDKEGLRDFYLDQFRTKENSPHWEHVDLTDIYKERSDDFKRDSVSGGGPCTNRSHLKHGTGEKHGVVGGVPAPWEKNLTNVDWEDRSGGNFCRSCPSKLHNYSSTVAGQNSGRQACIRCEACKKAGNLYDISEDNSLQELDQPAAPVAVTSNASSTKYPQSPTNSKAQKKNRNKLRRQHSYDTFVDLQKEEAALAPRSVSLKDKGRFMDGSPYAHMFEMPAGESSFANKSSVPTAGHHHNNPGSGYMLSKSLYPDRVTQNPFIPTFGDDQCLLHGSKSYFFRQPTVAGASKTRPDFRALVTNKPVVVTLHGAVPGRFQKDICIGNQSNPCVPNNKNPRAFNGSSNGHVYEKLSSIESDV

IC50 [1] [nM] | IC50 (Glutamate NMDA receptor) [nM] | inhibition [2] [%] | Structure (SMILES) | Inhibition [3] [%] | ED50 (Mus musculus) [mg/kg]
3.2 | 2.5 | – | COc1cccc(CC2CCN(C(=O)c3nc4ccc(O)cc4[nH]3)CC2)c1 | – | –
5.2 | 6 | – | O=C(c1nc2ccc(O)cc2[nH]1)N1CCC(Cc2cccc(F)c2)CC1 | – | –
8.4 | 12 | – | Cc1ccccc1CC1CCN(C(=O)c2nc3cc(O)ccc3[nH]2)CC1 | – | –
143 | 40 | – | Nc1ccc2[nH]c(C(=O)N3CCC(Cc4ccccc4)CC3)nc2c1 | – | –
6 | 2.9 | – | O=C(c1nc2ccc(O)cc2[nH]1)N1CCC(Oc2ccc(F)cc2)CC1 | – | –
4.4 | 8.7 | – | Cc1ccc(CC2CCN(C(=O)c3nc4ccc(O)cc4[nH]3)CC2)cc1 | – | –
5 | 2.4 | – | Cc1cccc(CC2CCN(C(=O)c3nc4ccc(O)cc4[nH]3)CC2)c1 | – | –
4 | 1.2 | – | O=C(c1nc2ccc(O)cc2[nH]1)N1CCC(Cc2ccc(F)cc2)CC1 | – | –
4 | – | < 20 | O=C(c1nc2ccc(O)cc2[nH]1)N1CCC(Cc2ccccc2)CC1 | <20 | 1.6
3.5 | 8.6 | – | CS(=O)(=O)Nc1ccc2nc(CN3CCC(Cc4ccccc4)CC3)[nH]c2c1 | – | –
3 | 1.1 | – | Cc1ccc(OC2CCN(C(=O)c3nc4ccc(O)cc4[nH]3)CC2)cc1 | – | –
3 | 1.3 | – | CS(=O)(=O)Nc1ccc2[nH]c(C(=O)N3CCC(Cc4ccccc4)CC3)nc2c1 | – | –
14 | 1.7 | – | O=C(c1nc2ccc(O)cc2[nH]1)N1CCC(Oc2ccc(Cl)cc2)CC1 | – | –
10 | 3 | – | O=C(c1nc2c(O)cccc2[nH]1)N1CCC(Cc2ccccc2)CC1 | – | –
6 | 159 | – | C[C@@H](CN1CCC(Cc2ccccc2)CC1)[C@@H](O)c1ccc(O)cc1 | – | –

Structure (SMILES) | IC50 [1] [nM] | IC50 (Glutamate NMDA receptor) [nM] | inhibition [2] [%] | Inhibition [3] [%] | ED50 (Mus musculus) [mg/kg]
O=c1[nH]c2ccc([S+]([O-])CCN3CCC(Cc4ccc(F)cc4)CC3)cc2o1 (centres undefined) [BESONPRODIL] | 4 | 6.6 | – | – | –
